Laboratory results reported in ChEMBL document CHEMBL4219183, “Novel purine benzimidazoles as antimicrobial agents by regulating ROS generation and targeting clinically resistant Staphylococcus aureus DNA groove” (Bioorg Med Chem Lett, 2018).
≈ marks a conversion by molar mass, not a printed value.

Each compound was assayed on Escherichia coli (assay: Antibacterial activity against Escherichia coli after 24 hrs by two fold serial dilution method). Details: not given.
Type: functional

Compound	MIC [µg/mL]
Fc1cccc(Cn2c(Cn3cnc4c(N5CCOCC5)ncnc43)nc3ccccc32)c1	256 (≈ 577 µM)
C#CCn1c(Cn2cnc3c(N4CCOCC4)ncnc32)nc2ccccc21	128 (≈ 343 µM)
c1nc(N2CCCCC2)c2nc[nH]c2n1	256 (≈ 1260 µM)
CCCCCCCCCCCCn1c(Cn2cnc3c(N4CCOCC4)ncnc32)nc2ccccc21	32 (≈ 63.5 µM)
Fc1ccc(Cn2c(Cn3cnc4c(N5CCOCC5)ncnc43)nc3ccccc32)cc1	128 (≈ 289 µM)

Each compound was assayed on Candida tropicalis (assay: Antifungal activity against Candida tropicalis after 24 hrs by two fold serial dilution method). Details: not given.
Type: functional

Compound	MIC80 [µg/mL]
Fc1cccc(Cn2c(Cn3cnc4c(N5CCOCC5)ncnc43)nc3ccccc32)c1	128 (≈ 289 µM)
C#CCn1c(Cn2cnc3c(N4CCOCC4)ncnc32)nc2ccccc21	128 (≈ 343 µM)
c1nc(N2CCCCC2)c2nc[nH]c2n1	256 (≈ 1260 µM)
CCCCCCCCCCCCn1c(Cn2cnc3c(N4CCOCC4)ncnc32)nc2ccccc21	64 (≈ 127 µM)
Fc1ccc(Cn2c(Cn3cnc4c(N5CCOCC5)ncnc43)nc3ccccc32)cc1	64 (≈ 144 µM)

These compounds were tested on Klebsiella pneumoniae (assay: Antibacterial activity against Klebsiella pneumoniae after 24 hrs by two fold serial dilution method). Details: not given.
Type: functional

Compound	MIC [µg/mL]
Fc1cccc(Cn2c(Cn3cnc4c(N5CCOCC5)ncnc43)nc3ccccc32)c1	16 (≈ 36.1 µM)
C#CCn1c(Cn2cnc3c(N4CCOCC4)ncnc32)nc2ccccc21	128 (≈ 343 µM)
c1nc(N2CCCCC2)c2nc[nH]c2n1	256 (≈ 1260 µM)
CCCCCCCCCCCCn1c(Cn2cnc3c(N4CCOCC4)ncnc32)nc2ccccc21	256 (≈ 508 µM)
Fc1ccc(Cn2c(Cn3cnc4c(N5CCOCC5)ncnc43)nc3ccccc32)cc1	128 (≈ 289 µM)

Each compound was assayed on Candida albicans (assay: Antifungal activity against Candida albicans ATCC 90023 after 24 hrs by two fold serial dilution method). Details: ATCC 90023, 24 h.
Type: functional

Compound	MIC80 [µg/mL]
Fc1cccc(Cn2c(Cn3cnc4c(N5CCOCC5)ncnc43)nc3ccccc32)c1	32 (≈ 72.2 µM)
C#CCn1c(Cn2cnc3c(N4CCOCC4)ncnc32)nc2ccccc21	256 (≈ 686 µM)
c1nc(N2CCCCC2)c2nc[nH]c2n1	128 (≈ 630 µM)
CCCCCCCCCCCCn1c(Cn2cnc3c(N4CCOCC4)ncnc32)nc2ccccc21	64 (≈ 127 µM)
Fc1ccc(Cn2c(Cn3cnc4c(N5CCOCC5)ncnc43)nc3ccccc32)cc1	128 (≈ 289 µM)

These compounds were tested on Escherichia coli (assay: Antibacterial activity against Escherichia coli ATCC 25922 after 24 hrs by two fold serial dilution method). Details: ATCC 25922, 24 h.
Type: functional

Compound	MIC [µg/mL]
Fc1cccc(Cn2c(Cn3cnc4c(N5CCOCC5)ncnc43)nc3ccccc32)c1	256 (≈ 577 µM)
C#CCn1c(Cn2cnc3c(N4CCOCC4)ncnc32)nc2ccccc21	512 (≈ 1370 µM)
c1nc(N2CCCCC2)c2nc[nH]c2n1	256 (≈ 1260 µM)
CCCCCCCCCCCCn1c(Cn2cnc3c(N4CCOCC4)ncnc32)nc2ccccc21	256 (≈ 508 µM)
Fc1ccc(Cn2c(Cn3cnc4c(N5CCOCC5)ncnc43)nc3ccccc32)cc1	256 (≈ 577 µM)

Each compound was assayed on Enterococcus faecalis (assay: Antibacterial activity against Enterococcus faecalis after 24 hrs by two fold serial dilution method). Details: not given.
Type: functional

Compound	MIC [µg/mL]
Fc1cccc(Cn2c(Cn3cnc4c(N5CCOCC5)ncnc43)nc3ccccc32)c1	128 (≈ 289 µM)
C#CCn1c(Cn2cnc3c(N4CCOCC4)ncnc32)nc2ccccc21	256 (≈ 686 µM)
c1nc(N2CCCCC2)c2nc[nH]c2n1	256 (≈ 1260 µM)
CCCCCCCCCCCCn1c(Cn2cnc3c(N4CCOCC4)ncnc32)nc2ccccc21	128 (≈ 254 µM)
Fc1ccc(Cn2c(Cn3cnc4c(N5CCOCC5)ncnc43)nc3ccccc32)cc1	256 (≈ 577 µM)

The compounds below were run on Acinetobacter baumannii (assay: Antibacterial activity against Acinetobacter baumannii after 24 hrs by two fold serial dilution method). Details: not given.
Type: functional

Compound	MIC [µg/mL]
Fc1cccc(Cn2c(Cn3cnc4c(N5CCOCC5)ncnc43)nc3ccccc32)c1	256 (≈ 577 µM)
C#CCn1c(Cn2cnc3c(N4CCOCC4)ncnc32)nc2ccccc21	256 (≈ 686 µM)
c1nc(N2CCCCC2)c2nc[nH]c2n1	128 (≈ 630 µM)
CCCCCCCCCCCCn1c(Cn2cnc3c(N4CCOCC4)ncnc32)nc2ccccc21	512 (≈ 1020 µM)
Fc1ccc(Cn2c(Cn3cnc4c(N5CCOCC5)ncnc43)nc3ccccc32)cc1	256 (≈ 577 µM)

These compounds were tested on Staphylococcus aureus (assay: Antibacterial activity against Staphylococcus aureus ATCC 29213 after 24 hrs by two fold serial dilution method). Details: ATCC 29213, 24 h.
Type: functional

Compound	MIC [µg/mL]
Fc1cccc(Cn2c(Cn3cnc4c(N5CCOCC5)ncnc43)nc3ccccc32)c1	64 (≈ 144 µM)
C#CCn1c(Cn2cnc3c(N4CCOCC4)ncnc32)nc2ccccc21	256 (≈ 686 µM)
c1nc(N2CCCCC2)c2nc[nH]c2n1	512 (≈ 2520 µM)
CCCCCCCCCCCCn1c(Cn2cnc3c(N4CCOCC4)ncnc32)nc2ccccc21	512 (≈ 1020 µM)
Fc1ccc(Cn2c(Cn3cnc4c(N5CCOCC5)ncnc43)nc3ccccc32)cc1	256 (≈ 577 µM)

These compounds were tested on Candida albicans (assay: Antifungal activity against Candida albicans after 24 hrs by two fold serial dilution method). Details: not given.
Type: functional

Compound	MIC80 [µg/mL]
Fc1cccc(Cn2c(Cn3cnc4c(N5CCOCC5)ncnc43)nc3ccccc32)c1	256 (≈ 577 µM)
C#CCn1c(Cn2cnc3c(N4CCOCC4)ncnc32)nc2ccccc21	256 (≈ 686 µM)
c1nc(N2CCCCC2)c2nc[nH]c2n1	128 (≈ 630 µM)
CCCCCCCCCCCCn1c(Cn2cnc3c(N4CCOCC4)ncnc32)nc2ccccc21	256 (≈ 508 µM)
Fc1ccc(Cn2c(Cn3cnc4c(N5CCOCC5)ncnc43)nc3ccccc32)cc1	256 (≈ 577 µM)

Each compound was assayed on Staphylococcus aureus (assay: Antibacterial activity against methicillin-resistant Staphylococcus aureus N315 after 24 hrs by two fold serial dilution method). Details: N315, 24 h.
Type: functional

Compound	MIC [µg/mL]
Fc1cccc(Cn2c(Cn3cnc4c(N5CCOCC5)ncnc43)nc3ccccc32)c1	512 (≈ 1150 µM)
C#CCn1c(Cn2cnc3c(N4CCOCC4)ncnc32)nc2ccccc21	512 (≈ 1370 µM)
c1nc(N2CCCCC2)c2nc[nH]c2n1	512 (≈ 2520 µM)
CCCCCCCCCCCCn1c(Cn2cnc3c(N4CCOCC4)ncnc32)nc2ccccc21	512 (≈ 1020 µM)
Fc1ccc(Cn2c(Cn3cnc4c(N5CCOCC5)ncnc43)nc3ccccc32)cc1	256 (≈ 577 µM)

The compounds below were run on Pseudomonas aeruginosa (assay: Antibacterial activity against Pseudomonas aeruginosa ATCC 27853 after 24 hrs by two fold serial dilution method). Details: ATCC 27853, 24 h.
Type: functional

Compound	MIC [µg/mL]
Fc1cccc(Cn2c(Cn3cnc4c(N5CCOCC5)ncnc43)nc3ccccc32)c1	128 (≈ 289 µM)
C#CCn1c(Cn2cnc3c(N4CCOCC4)ncnc32)nc2ccccc21	128 (≈ 343 µM)
c1nc(N2CCCCC2)c2nc[nH]c2n1	64 (≈ 315 µM)
CCCCCCCCCCCCn1c(Cn2cnc3c(N4CCOCC4)ncnc32)nc2ccccc21	128 (≈ 254 µM)
Fc1ccc(Cn2c(Cn3cnc4c(N5CCOCC5)ncnc43)nc3ccccc32)cc1	64 (≈ 144 µM)

The compounds below were run on Staphylococcus aureus (assay: Antibacterial activity against Staphylococcus aureus after 24 hrs by two fold serial dilution method). Details: not given.
Type: functional

Compound	MIC [µg/mL]
Fc1cccc(Cn2c(Cn3cnc4c(N5CCOCC5)ncnc43)nc3ccccc32)c1	256 (≈ 577 µM)
C#CCn1c(Cn2cnc3c(N4CCOCC4)ncnc32)nc2ccccc21	128 (≈ 343 µM)
c1nc(N2CCCCC2)c2nc[nH]c2n1	32 (≈ 157 µM)
CCCCCCCCCCCCn1c(Cn2cnc3c(N4CCOCC4)ncnc32)nc2ccccc21	16 (≈ 31.8 µM)
Fc1ccc(Cn2c(Cn3cnc4c(N5CCOCC5)ncnc43)nc3ccccc32)cc1	512 (≈ 1150 µM)

What follows are compounds tested on Staphylococcus aureus (assay: Antibacterial activity against Staphylococcus aureus ATCC 25923 after 24 hrs by two fold serial dilution method). Details: ATCC 25923, 24 h.
Type: functional

Compound	MIC [µg/mL]
Fc1cccc(Cn2c(Cn3cnc4c(N5CCOCC5)ncnc43)nc3ccccc32)c1	32 (≈ 72.2 µM)
C#CCn1c(Cn2cnc3c(N4CCOCC4)ncnc32)nc2ccccc21	128 (≈ 343 µM)
c1nc(N2CCCCC2)c2nc[nH]c2n1	512 (≈ 2520 µM)
CCCCCCCCCCCCn1c(Cn2cnc3c(N4CCOCC4)ncnc32)nc2ccccc21	512 (≈ 1020 µM)
Fc1ccc(Cn2c(Cn3cnc4c(N5CCOCC5)ncnc43)nc3ccccc32)cc1	64 (≈ 144 µM)

What follows are compounds tested on Pseudomonas aeruginosa (assay: Antibacterial activity against Pseudomonas aeruginosa after 24 hrs by two fold serial dilution method). Details: not given.
Type: functional

Compound	MIC [µg/mL]
Fc1cccc(Cn2c(Cn3cnc4c(N5CCOCC5)ncnc43)nc3ccccc32)c1	256 (≈ 577 µM)
C#CCn1c(Cn2cnc3c(N4CCOCC4)ncnc32)nc2ccccc21	256 (≈ 686 µM)
c1nc(N2CCCCC2)c2nc[nH]c2n1	256 (≈ 1260 µM)
CCCCCCCCCCCCn1c(Cn2cnc3c(N4CCOCC4)ncnc32)nc2ccccc21	128 (≈ 254 µM)
Fc1ccc(Cn2c(Cn3cnc4c(N5CCOCC5)ncnc43)nc3ccccc32)cc1	256 (≈ 577 µM)

The compounds below were run on Candida parapsilosis (assay: Antifungal activity against Candida parapsilosis ATCC 22019 after 24 hrs by two fold serial dilution method). Details: ATCC 22019, 24 h.
Type: functional

Compound	MIC80 [µg/mL]
Fc1cccc(Cn2c(Cn3cnc4c(N5CCOCC5)ncnc43)nc3ccccc32)c1	128 (≈ 289 µM)
C#CCn1c(Cn2cnc3c(N4CCOCC4)ncnc32)nc2ccccc21	256 (≈ 686 µM)
c1nc(N2CCCCC2)c2nc[nH]c2n1	512 (≈ 2520 µM)
CCCCCCCCCCCCn1c(Cn2cnc3c(N4CCOCC4)ncnc32)nc2ccccc21	256 (≈ 508 µM)
Fc1ccc(Cn2c(Cn3cnc4c(N5CCOCC5)ncnc43)nc3ccccc32)cc1	256 (≈ 577 µM)

These compounds were tested on Aspergillus fumigatus (assay: Antifungal activity against Aspergillus fumigatus after 24 hrs by two fold serial dilution method). Details: not given.
Type: functional

Compound	MIC80 [µg/mL]
Fc1cccc(Cn2c(Cn3cnc4c(N5CCOCC5)ncnc43)nc3ccccc32)c1	256 (≈ 577 µM)
C#CCn1c(Cn2cnc3c(N4CCOCC4)ncnc32)nc2ccccc21	512 (≈ 1370 µM)
c1nc(N2CCCCC2)c2nc[nH]c2n1	64 (≈ 315 µM)
CCCCCCCCCCCCn1c(Cn2cnc3c(N4CCOCC4)ncnc32)nc2ccccc21	256 (≈ 508 µM)
Fc1ccc(Cn2c(Cn3cnc4c(N5CCOCC5)ncnc43)nc3ccccc32)cc1	256 (≈ 577 µM)
